Molecules are shown by their SMILES. Values joined by “and” are separate entries in the source; they are usually repeats but may differ in a detail not shown here. Equal values may be shown once.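 Following 48 hours of exposure in 96-well plates, responses at five concentrations were used to interpolate endpoints linearly. Here, GI50 denotes the concentration required for 50% inhibition of growth. TGI marks complete inhibition of growth.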 A value given as a limit tells only on which side of the number the result lay.

One assay has as its system HT29 colon. The experiment in a line: inhibition of tumour cell growth, NCI panel, 48 h.
Regarding `CCOC1Oc2ccccc2-c2oc(=O)c(Sc3ccc(C)cc3)cc21` (configuration not stated), the GI50 is 32 µM and the TGI is above 100 µM.

Regarding `CC1CCCc2c1nn(C(=O)/C=C(\N)c1ccccc1)c2N` (configuration not stated), the GI50 is 16.8 µM and the TGI was above 100 µM.

As to `O=c1c(Cl)c(Cl)cnn1CCc1ccncc1`, the TGI is 31.6 µM.

In turn, `Cc1ccc(S(=O)(=O)N/N=C(\c2nc3ccc([N+](=O)[O-])cc3[nH]c2=O)C(O)c2ccccc2Cl)cc1` (configuration not stated) had a TGI above 100 µM.

`COc1ccc(CC(C)C(C)Cc2ccc(OC)c(OC)c2)cc1OC` (configuration not stated): the GI50 was above 1400 µM and the TGI was above 1400 µM.

`Cc1ccc2c(c1)Sc1ccc(N=NN(C)C)cc1N2C` registered a TGI above 100 µM.

In turn, `O=C1C2=C(c3ccccc31)C(c1ccccc1Cl)N1C(=O)CCSC1=N2` (configuration not stated) had a TGI above 100 µM.

Turning to `Cc1ncc(C(=O)Nc2ccc(CN3CCN(C)CC3)c(C(F)(F)F)c2)cc1C#Cc1cnc(NC2CC2)c2ncccc12`, the GI50 was 0.474 µM and the TGI stood at 1.31 µM.

Consider `Cc1ccc2nc3c(Cl)c(C)c(=O)cc-3sc2c1`, for which the GI50 was above 100 µM and the TGI was above 100 µM.

Compound `O=C/C(=C(/Cl)c1ccc(O)cc1)c1ccccc1` displayed a TGI above 62.7 µM.

Another assay deals with M14 melanoma. Kind of assay: inhibition of tumour cell growth, NCI panel, 48 h.
`CNC(=O)c1cc2c(Oc3ccc(NC(=O)C4(C(=O)Nc5ccc(F)cc5)CC4)cc3)ccnc2cc1OC`: the GI50 is 2.45 µM and the TGI is 11.2 µM.

In turn, `Cc1cc(N(CCC#N)CCC#N)ccc1/C=C1N=C(/C=C/c2ccccc2)OC(=O)N\1` registered a TGI above 100 µM.

As for `O=S1(=O)NCCCN1CCNc1nccc(-c2c(-c3cccc(O)c3)nc3sccn23)n1`, the GI50 is 0.366 µM and the TGI is 15.5 µM.

For `O=C(c1ccc2ccccc2c1)c1c(C(F)(F)F)n([O-])c2ccc(Cl)cc2[n+]1=O`, the GI50 is 1.64 µM and the TGI is 3.05 µM.

In turn, `CC(=O)OCC1OC(n2cc([N+](=O)[O-])c(=O)[nH]c2=O)C(OC(C)=O)C(OC(C)=O)C1OC(C)=O` (configuration not stated) registered a TGI above 100 µM.

`O=C1C=C(O)c2[nH]c(=O)ccc2C1=O`: the TGI was above 100 µM.

`NC(=O)c1cccc(Nc2nccc(Nc3cccc(F)c3)n2)c1`: the GI50 is 8.92 µM and the TGI was above 25 µM.

For the compound `CCN(CC)CCNC(=O)c1c(C)[nH]c(/C=C2\C(=O)Nc3ccc(F)cc32)c1C`, the GI50 was 0.574 µM and 1.03 µM and 0.687 µM; the TGI is 2.33 µM and 3.56 µM and 2.23 µM.

With `CCN(CC)CC(=O)N1CCc2c([nH]c3ccccc23)C1c1cccnc1` (configuration not stated), the TGI was above 100 µM.

Turning to `CCOC1Oc2ccccc2-c2oc(=O)c(Sc3ccc(C)cc3)cc21` (configuration not stated), the GI50 was 48.2 µM and the TGI was above 100 µM.

Take `CC1CCCc2c1nn(C(=O)/C=C(\N)c1ccccc1)c2N` (configuration not stated): the GI50 was 12.3 µM and the TGI is above 100 µM.

Take `O=c1c(Cl)c(Cl)cnn1CCc1ccncc1`: the TGI worked out at 30.7 µM.

Take `Cc1ccc(S(=O)(=O)N/N=C(\c2nc3ccc([N+](=O)[O-])cc3[nH]c2=O)C(O)c2ccccc2Cl)cc1` (configuration not stated): the TGI was above 100 µM.

Turning to `COc1ccc(CC(C)C(C)Cc2ccc(OC)c(OC)c2)cc1OC` (configuration not stated), the GI50 is above 1400 µM and the TGI is above 1400 µM.

Consider `Cc1ccc2c(c1)Sc1ccc(N=NN(C)C)cc1N2C`, for which the TGI is above 100 µM.

The compound `O=C1C2=C(c3ccccc31)C(c1ccccc1Cl)N1C(=O)CCSC1=N2` (configuration not stated) returned a TGI above 100 µM.

Regarding `Cc1ncc(C(=O)Nc2ccc(CN3CCN(C)CC3)c(C(F)(F)F)c2)cc1C#Cc1cnc(NC2CC2)c2ncccc12`, the GI50 is 0.56 µM and the TGI was found to be 1.11 µM.

Take `Cc1ccc2nc3c(Cl)c(C)c(=O)cc-3sc2c1`: the GI50 is 37.7 µM and the TGI is above 100 µM.

Turning to `O=C/C(=C(/Cl)c1ccc(O)cc1)c1ccccc1`, the TGI was above 57.1 µM.

The next assay has as its system OVCAR-3 ovarian. The experiment in a line: inhibition of tumour cell growth, NCI panel, 48 h.
Regarding `CNC(=O)c1cc2c(Oc3ccc(NC(=O)C4(C(=O)Nc5ccc(F)cc5)CC4)cc3)ccnc2cc1OC`, the GI50 is 3.48 µM and the TGI was above 100 µM.

`Cc1cc(N(CCC#N)CCC#N)ccc1/C=C1N=C(/C=C/c2ccccc2)OC(=O)N\1` displayed a TGI above 100 µM.

Turning to `O=S1(=O)NCCCN1CCNc1nccc(-c2c(-c3cccc(O)c3)nc3sccn23)n1`, the GI50 is 19.4 µM and the TGI was above 100 µM.

With `O=C(c1ccc2ccccc2c1)c1c(C(F)(F)F)n([O-])c2ccc(Cl)cc2[n+]1=O`, the GI50 is 1.32 µM and the TGI was 2.62 µM.

The compound `CC(=O)OCC1OC(n2cc([N+](=O)[O-])c(=O)[nH]c2=O)C(OC(C)=O)C(OC(C)=O)C1OC(C)=O` (configuration not stated) had a TGI above 100 µM.

Compound `O=C1C=C(O)c2[nH]c(=O)ccc2C1=O` returned a TGI above 100 µM.

As for `NC(=O)c1cccc(Nc2nccc(Nc3cccc(F)c3)n2)c1`, the GI50 was 10 µM and the TGI is above 25 µM.

For `CCN(CC)CCNC(=O)c1c(C)[nH]c(/C=C2\C(=O)Nc3ccc(F)cc32)c1C`, the GI50 was > 10 µM and 3.41 µM and 3.33 µM; the TGI is > 10 µM and 6.34 µM and 7.54 µM.

For the compound `CCN(CC)CC(=O)N1CCc2c([nH]c3ccccc23)C1c1cccnc1` (configuration not stated), the TGI is above 100 µM.

With `CCOC1Oc2ccccc2-c2oc(=O)c(Sc3ccc(C)cc3)cc21` (configuration not stated), the GI50 is 18.1 µM and the TGI is above 100 µM.

With `CC1CCCc2c1nn(C(=O)/C=C(\N)c1ccccc1)c2N` (configuration not stated), the GI50 is 5.61 µM and the TGI was 32.6 µM.

The compound `O=c1c(Cl)c(Cl)cnn1CCc1ccncc1` had a TGI of 31.4 µM.

Turning to `Cc1ccc(S(=O)(=O)N/N=C(\c2nc3ccc([N+](=O)[O-])cc3[nH]c2=O)C(O)c2ccccc2Cl)cc1` (configuration not stated), the TGI is above 100 µM.

For `COc1ccc(CC(C)C(C)Cc2ccc(OC)c(OC)c2)cc1OC` (configuration not stated), the GI50 is above 1400 µM and the TGI is above 1400 µM.

With `Cc1ccc2c(c1)Sc1ccc(N=NN(C)C)cc1N2C`, the TGI was above 100 µM.

For `O=C1C2=C(c3ccccc31)C(c1ccccc1Cl)N1C(=O)CCSC1=N2` (configuration not stated), the TGI is above 100 µM.

Turning to `Cc1ncc(C(=O)Nc2ccc(CN3CCN(C)CC3)c(C(F)(F)F)c2)cc1C#Cc1cnc(NC2CC2)c2ncccc12`, the GI50 is 0.693 µM and the TGI is 1.28 µM.

With `Cc1ccc2nc3c(Cl)c(C)c(=O)cc-3sc2c1`, the GI50 was 50.2 µM and the TGI is above 100 µM.

The record behind these values is PubChem BioAssay (NCI).
